Test results taken from patent US9956200B2, “Compositions comprising dihydroquercetin for use in methods for treating the effects associated with skin inflammatory disorders” (BIONOOX SUISSE SA, priority 2014, dated 2018).
Where “and” joins values, the source holds several entries; their conditions need not be identical. Equal values may be shown once.

Legend:
Type in all cases: cell-based
[1] = test system: polymorphonuclear neutrophils; test: Oxygen consumption of polymorphonuclear neutrophils triggered by PMA and fMLP; conditions: data not shown
human mast cells = test: Mast cell degranulation (beta-hexosaminidase release) induced by IgE then anti-IgE; conditions: versus kinase inhibitors and chromoglycate (reference molecule)
Excerpt: Pure populations of human mast cells (HMC) are obtained by long-term culture of human normal hematopoietic progenitors (CD34^+ cells) in the continuous presence of Stem Cell Factor (SCF). Sources of these CD34^+ cells are mainly bone marrow, cord blood or peripheral blood. Usually, mononuclear cells from bone marrow and cord blood contain 0.5-1% of CD34^+ cells, whereas peripheral blood contains less than 0.1% of CD34^+ cells. Hematopoietic progenitor cells can be rapidly and efficiently enriched to a purity of about 85-98% using positive selection of magnetically labeled CD34^+ cells. Hematopoietic progenitor cells are then magnetically labeled using MACS CD34 MicroBeads. The magnetically labeled cells are enriched on positive selection columns in the magnetic field. Mononuclear cells from peripheral blood (PBMC), cord blood, or bone marrow may otherwise be obtained by density gradient centrifugation over Ficoll Paque®. Fractionation methods for producing mast cells are described in the art (see for instance Arock et al., 2008, Methods in Molecular biology 415: 241-254). Mast cell degranulation was induced by sequential treatment of mast cell by IgE, then by anti-IgE antibodies. Degranulation was subsequently measured by evaluating the release of beta-hexosaminidase, 1 h after IgE stimulation (see FIG. 4).

[2] = test system: neutrophils triggered by fMLP; test: ROS production by luminol chemiluminescence, neutrophils triggered by fMLP; conditions: fMLP 10^−6 M; DHQ 1, 10 or 100 μM, concentration per sample not given
Protocol: Neutrophils (5×10^5) are suspended in 0.5 mL of Hanks balanced salt solution containing 10 μM luminol at 37° C. The cells are then stimulated with 10^−6M fMLF (N-formylmethionyl-leucyl-phenylalanine). Chemiluminescence is recorded with a luminometer (Berthold-Biolumat LB937). Similarly, neutrophils were triggered by fMLP (10^−6 M) in the presence of different concentrations of DHQ (0, 1, 10 and 100 μM) at 37° C. in Hanks buffer containing 10 μM luminol and chemiluminescence was measured by a chemiluminometer. Total chemiluminescence counts during 22.21 min. (integrals) corresponding to total ROS production were determined.

O=C1c2c(O)cc(O)cc2OC(c2ccc(O)c(O)c2)C1O (stereo not shown) [DHQ]
effect on oxygen consumption of polymorphonuclear neutrophils [1]: strongly inhibits | inhibitory activity on mast cell degranulation compared with reference molecules (human mast cells): superior to kinase inhibitors and chromoglycate | T.half (fall) [2]: 3.78 and 3.55 | T.half (rise) [2]: 1.55
